Data from patent US5157052A, “Method for inhibiting IgE production” (priority 1990, dated 1992).

Experiments:
IgG1 = test: Serum IgG1 in anti-IgD stimulated mice (two site sandwich ELISA, Assay B); assay type: in vivo, mouse (Balb/c female); settings: 20 μg days 3 and 4
Method: (§1) Sera from mice treated with compounds in accordance with the method of the invention are analyzed for levels of IgG1, IgG2a, IgG3, and IgM.
Mouse IgG1 measurement by a two site sandwich ELISA is as follows. About 5 μg of rabbit anti mouse IgG (Organon-Teknika-Cappel, Malvern, Pa.) is attached to the wells of a NuncImmulon 96 well plate and IgG1 levels are determined in substantial accordance with Assay A except with the following changes. The IgG1 standard is purchased from Southern BioTech, Birmingham, Ala., and stored at 10 μg/ml in 2% NBS in PBS at 4° C. The standard curve is prepared by diluting the mouse IgG1 standard in 0.05% Tween-80 in PBS, and is linear between 3.9 and 250 ng/ml. Serum containing IgG1 is diluted 1/10,000 to 1/1,000,000 in 0.05% Tween 80-PBS, to place the measurement within the standard curve. Standard IgG1 (or diluted serum) is incubated at about 37° C. for 1 hour and the plates are washed with 0.05% Tween 80-PBS as described in Assay A. About a 1/3,000 dilution of Goat anti mouse IgG1 (Southern Biotech, Birmingham, Ala.) conjugated to alkaline phosphatase in 0.05% Tween 80-PBS is added to each well and incubated at about 37° C. for 60 minutes. The plate is washed and colorimetric substrate, prepared as described by the manufacturer (Alkaline Phosphatase Substrate System, KPL, Gaithersburg, Md.), is added and optical density and data analysis is performed in the same manner as Assay A.
(§2) Sera from the mice described in Example 13 are analyzed for the levels of IgG1, IgG2a, and IgG3 by Assays B, C, and D, respectively.
(§3) Two groups of 4 Balb/c female mice per group are injected with both 100 μg FF1-4D5 antibody and 100 μg H∂A1 antibody. One of these groups is a stimulated control designated Group B. On day 3 and 4, the other group is injected with 40 μg (±) methyl 11α, 16-dihydroxy-1-methyl-9-oxoprosta-4Z,13E-dien-1-oate. Another group is injected with only PBS as an unstimulated control (Group A). On day -1 and 8, 50-100 μl of serum is recovered and analyzed for IgE, IgG1 and IgG2a by Assays A, B, and C, respectively.
(§4) 3 groups of 4 Balb/c female mice per group are injected with both 100 μg FF1-4D5 antibody and 100 μg H∂A1 antibody on day 0. Group A is given no further treatment. On day 3 and 4, one group of mice is injected with 20 μg (±) methyl 2-[2-[3R-3α-hydroxy-2β-(4-hydroxy-4-methyl-1E-octenyl-5-oxo-1α-cyclopentyl]-methyl]cyclopropanebutanoate (Group B) and another group with 20 μg (±) methyl 2-[2-[3R-3α-hydroxy-2β-(4-hydroxy-4-methyl-1E-octenyl)-5-oxo-1α-cyclopentyl]ethyl]cyclopropanepropanoate (Group C) as in Example 13. On day -1 and 8, 50-100 μl of serum is recovered and analyzed for IgE, IgG1, IgG2a and IgG3 by Assays A, B, C and D, respectively. The selectivity of inhibition of IgE is shown in Table 12.
(§5) Three groups of 5 Balb/c female mice per group are injected with both 100 μg FF1-4D5 antibody and 100 μg H∂A1 antibody on day 0. Group A is a control with no further treatment. On day 3 and 4, the mice are injected with 20 μg (±) methyl 11α,16-dihydroxy-4,4,16-trimethyl-9-oxoprosta-13E-en-1-oate (Group B) or 20 μg (±) methyl 11α,16-dihydroxy-16-methyl-9-oxoprosta-3,5Z,13E-trien-1-oate (Group C) as in Example 13. On day -1 and 8, […] of serum is recovered and analyzed for IgE, IgG1, IgG2a, IgG3 and IgM by Assays A, B, C, D and E, respectively.

IgG2a = test: Serum IgG2a in anti-IgD stimulated mice (two site sandwich ELISA, Assay C); assay type: in vivo, mouse (Balb/c female); settings: 20 μg days 3 and 4
Method: as §1
Measurement of mouse IgG2a by a two site sandwich ELISA is performed in substantial accordance with the teaching of Assay B except with the following changes. NuncImmulon II plates are used in this assay. The IgG2a standard is purchased from Southern Biotech. The standard curve is linear between 4-250 ng/ml. Serum containing IgG2a is diluted 1/6400 to 1/1,000,000. About a 1/6,000 dilution of goat anti mouse IgG2a (Southern Biotech) conjugated to alkaline phosphatase is used.
as §2, §3, §4, §5

IgG3 = test: Serum IgG3 in anti-IgD stimulated mice (two site sandwich ELISA, Assay D); assay type: in vivo, mouse (Balb/c female); settings: 20 μg days 3 and 4
IgE = test: ED50 for inhibition of IgE calculated from the examples; assay type: in vivo, mouse; settings: dose to achieve 50% inhibition of IgE
Method: From the data in the above examples, the effective dose of each prostaglandin to achieve 50% inhibition of IgE (ED50) was calculated.

[1] = Diarrheal effects in rats; settings: rat, in vivo, po
Method: Briefly, adult Charles River male rats weighing 210-230 g were individually housed and fasted with water available ad libitum for 24 hours prior to the test. The animals (N=6-12) received logarithmically graded prostaglandin doses orally. Immediately after administration, the animals were returned to their cages, and diarrhea, if any, was assessed on an all or none basis for 8 hours after drug treatment. The ED50 and relative potency values were calculated by the logistic method of Berkson.

In the case of `CCCCC(C)(O)C/C=C/[C@H]1[C@H](O)CC(=O)[C@@H]1CCCC(C)(C)CCC(=O)OC` (mixture of isomers) [(±) methyl 11α,16-dihydroxy-4,4,16-trimethyl-9-oxoprost-13E-en-1-oate], the “inhibition of IgG1” value (IgG1; Example 25) is reported as “not IgG1, IgG2a, IgG3 and IgM”, the “IgG1 ± SD” value (IgG1; Table 14, day 8 (control 21703)) is reported as 22555 ± 5821 µg/mL and the “inhibition of IgG2a” value (IgG2a; Example 25) is reported as “not IgG1, IgG2a, IgG3 and IgM”. The “IgG2a ± SD” value (IgG2a; Table 14, day 8 (control 1246)) was 1019 ± 278 µg/mL, the “inhibition of IgG3” value (IgG3; Example 25) was “not IgG1, IgG2a, IgG3 and IgM” and the “IgG3 ± SD” value (IgG3; Table 14, day 8 (control 1538)) was 2103 ± 616 µg/mL. For the same molecule, the “ED50 IgE Inhibition” value (IgE) was 1.5 μg/mouse/TID and the TD50 at 8 h [1] was 0.185 mg/kg.
